From ChEMBL document CHEMBL1201862, “PubChem BioAssay data set” (2004)
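Each compound was tested at five concentrations against cells in 96-well plates for 48 hours. GI50: concentration for 50% inhibition of growth.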 Active and inactive are the calls of the source. Cut-off read from the data, not from the text of the source: active = GI50 up to about 1.1 µM and inactive = higher.

How the values were obtained:
Assay in all cases: NCI anticancer screen, dose series, 48 h
SF-295 = tested on: SF-295
SF-268 = tested on: SF-268
NCI/ADR-RES = tested on: NCI/ADR-RES
SR = tested on: SR
T47D = tested on: T47D
M14 = tested on: M14
RXF 393 = tested on: RXF 393
OVCAR-5 = tested on: OVCAR-5
SK-MEL-28 = tested on: SK-MEL-28
UACC-257 = tested on: UACC-257
NCI-H522 = tested on: NCI-H522
IGROV-1 = tested on: IGROV-1
KM12 = tested on: KM12
HOP-62 = tested on: HOP-62
SNB-19 = tested on: SNB-19
SW-620 = tested on: SW-620
CCRF-CEM = tested on: CCRF-CEM
A549 = tested on: A549
LOX IMVI = tested on: LOX IMVI
HL-60 = tested on: HL-60

| Compound | GI50 (SF-295) | GI50 (SF-268) | GI50 (NCI/ADR-RES) | GI50 (SR) | GI50 (T47D) | GI50 (M14) | GI50 (RXF 393) | GI50 (OVCAR-5) | GI50 (SK-MEL-28) | GI50 (UACC-257) | GI50 (NCI-H522) | GI50 (IGROV-1) | GI50 (KM12) | GI50 (HOP-62) | GI50 (SNB-19) | GI50 (SW-620) | GI50 (CCRF-CEM) | GI50 (A549) | GI50 (LOX IMVI) | GI50 (HL-60) |
| --- | --- | --- | --- | --- | --- | --- | --- | --- | --- | --- | --- | --- | --- | --- | --- | --- | --- | --- | --- | --- |
| COC(=O)C(C(=O)C(=O)Nc1c(C)cccc1C(C)(C)C)c1nc2ccc(Cl)cc2nc1O (centres undefined) | > 100 µM (inactive) | > 100 µM (inactive) | > 100 µM (inactive) | > 100 µM (inactive) | > 100 µM (inactive) | > 100 µM (inactive) | > 100 µM (inactive) | > 100 µM (inactive) | > 100 µM (inactive) | > 100 µM (inactive) | 94.2 µM (inactive) | 25.8 µM (inactive) | > 100 µM (inactive) | > 100 µM (inactive) | 86.5 µM (inactive) | > 100 µM (inactive) | > 100 µM (inactive) | > 100 µM (inactive) | > 100 µM (inactive) | – |
| CC(CC(=O)O)(CC(=O)O)C(=O)O | > 100 µM (inactive) | > 100 µM (inactive) | > 100 µM (inactive) | > 100 µM (inactive) | > 100 µM (inactive) | > 100 µM (inactive) | > 100 µM (inactive) | > 100 µM (inactive) | > 100 µM (inactive) | > 100 µM (inactive) | > 100 µM (inactive) | > 100 µM (inactive) | > 100 µM (inactive) | > 100 µM (inactive) | > 100 µM (inactive) | > 100 µM (inactive) | – | > 100 µM (inactive) | > 100 µM (inactive) | – |
| O=C(O)C12CC3(C(=O)O)CC(C(=O)O)(CC(C(=O)O)(C1)C3=O)C2=O | > 100 µM (inactive) | > 100 µM (inactive) | > 100 µM (inactive) | > 100 µM (inactive) | > 100 µM (inactive) | > 100 µM (inactive) | > 100 µM (inactive) | > 100 µM (inactive) | > 100 µM (inactive) | > 100 µM (inactive) | > 100 µM (inactive) | > 100 µM (inactive) | > 100 µM (inactive) | > 100 µM (inactive) | > 100 µM (inactive) | > 100 µM (inactive) | > 100 µM (inactive) | > 100 µM (inactive) | > 100 µM (inactive) | – |
| CC(=O)OC(Cc1c(O)c2c(C)cccc2oc1=O)C(C)(C)O (centres undefined) | > 100 µM (inactive) | 91.4 µM (inactive) | 92.3 µM (inactive) | 55.1 µM (inactive) | 60.4 µM (inactive) | > 100 µM (inactive) | – | > 100 µM (inactive) | 88.1 µM (inactive) | > 100 µM (inactive) | > 100 µM (inactive) | > 100 µM (inactive) | > 100 µM (inactive) | > 100 µM (inactive) | > 100 µM (inactive) | > 100 µM (inactive) | 88.5 µM (inactive) | > 100 µM (inactive) | > 100 µM (inactive) | 72.6 µM (inactive) |
| C#CC(O)Cc1ccc(OC)c2occc12 (centres undefined) | > 100 µM (inactive) | > 100 µM (inactive) | > 100 µM (inactive) | > 100 µM (inactive) | > 100 µM (inactive) | > 100 µM (inactive) | > 100 µM (inactive) | > 100 µM (inactive) | – | > 100 µM (inactive) | > 100 µM (inactive) | > 100 µM (inactive) | > 100 µM (inactive) | > 100 µM (inactive) | > 100 µM (inactive) | > 100 µM (inactive) | – | > 100 µM (inactive) | > 100 µM (inactive) | – |
| COc1ccc(/C=C2/SC(c3ccc(Cl)cc3)N(NC(=O)CCCCCCCCC(=O)NN3C(=O)/C(=C\c4ccc(OC)c(OC)c4)SC3c3ccc(Cl)cc3)C2=O)cc1OC (centres undefined) | 21.4 µM (inactive) | 50 µM (inactive) | > 100 µM (inactive) | > 100 µM (inactive) | > 100 µM (inactive) | 44.1 µM (inactive) | 28 µM (inactive) | 87.1 µM (inactive) | 83 µM (inactive) | 54.3 µM (inactive) | – | 12.9 µM (inactive) | 55.3 µM (inactive) | 25.8 µM (inactive) | 50.2 µM (inactive) | > 100 µM (inactive) | – | 64.3 µM (inactive) | – | – |
| CC1(C)O[C@H]2OC(CO)C(N=[N+]=[N-])[C@H]2O1 (some centres undefined) | > 100 µM (inactive) | > 100 µM (inactive) | > 100 µM (inactive) | > 100 µM (inactive) | > 100 µM (inactive) | > 100 µM (inactive) | – | > 100 µM (inactive) | > 100 µM (inactive) | > 100 µM (inactive) | > 100 µM (inactive) | > 100 µM (inactive) | > 100 µM (inactive) | > 100 µM (inactive) | > 100 µM (inactive) | > 100 µM (inactive) | > 100 µM (inactive) | > 100 µM (inactive) | > 100 µM (inactive) | > 100 µM (inactive) |
| Nc1nc(O)c2ncn([C@H]3CC[C@@H](CO)O3)c2n1 | > 100 µM (inactive) | – | > 100 µM (inactive) | > 100 µM (inactive) | > 100 µM (inactive) | > 100 µM (inactive) | > 100 µM (inactive) | > 100 µM (inactive) | > 100 µM (inactive) | > 100 µM (inactive) | – | > 100 µM (inactive) | > 100 µM (inactive) | > 100 µM (inactive) | > 100 µM (inactive) | > 100 µM (inactive) | > 100 µM (inactive) | – | > 100 µM (inactive) | – |
| COc1ccc(NC(=S)N/N=C/c2cccc(C)n2)cc1 | 4.09 µM (inactive) | 3.94 µM (inactive) | 2.78 µM (inactive) | 3.42 µM (inactive) | 3.62 µM (inactive) | 2.4 µM (inactive) | – | 31.5 µM (inactive) | 5.68 µM (inactive) | 2.53 µM (inactive) | 0.203 µM (active) | 2.37 µM (inactive) | 3.98 µM (inactive) | 4.32 µM (inactive) | 7.16 µM (inactive) | 2.86 µM (inactive) | 2.82 µM (inactive) | 5.22 µM (inactive) | 3.65 µM (inactive) | 1.84 µM (inactive) |
| CCCNC(=O)c1cc(NC(=O)c2cc(NC(=O)CCS(=O)(=O)OC)cn2C)cn1C | > 69.8 µM (inactive) | – | > 100 µM (inactive) | > 100 µM (inactive) | 5.11 µM (inactive) | 28.6 µM (inactive) | 14.4 µM (inactive) | 40.9 µM (inactive) | 33.3 µM (inactive) | 24 µM (inactive) | 1.87 µM (inactive) | 15 µM (inactive) | 21.9 µM (inactive) | 25.8 µM (inactive) | 2.21 µM (inactive) | 6.27 µM (inactive) | 0.902 µM (active) | > 91 µM (inactive) | 14.6 µM (inactive) | – |
| CCOC(=O)c1cn2c(n1)sc1cc(Cl)ccc12 | 35.2 µM (inactive) | 30.6 µM (inactive) | 19.6 µM (inactive) | 1.55 µM (inactive) | 57.8 µM (inactive) | 18.3 µM (inactive) | 45 µM (inactive) | 15 µM (inactive) | 76.2 µM (inactive) | 26.7 µM (inactive) | 31.2 µM (inactive) | 24.7 µM (inactive) | 4.54 µM (inactive) | 18.1 µM (inactive) | 8.28 µM (inactive) | 4.75 µM (inactive) | 5.45 µM (inactive) | 15.6 µM (inactive) | 7.78 µM (inactive) | – |
